pIC50: −log10 of the molar value. Blank lines part the entries; values can stand above or below the compound they belong to.
What was measured:
[1] = Inhibition of SOCE in rat RBL-2H3 cells preincubated for 5 mins with thapsigargin followed by calcium chloride addition and measured after 5 mins by Fura-2AM dye based analysis; assay type: cell-based
ORAI1/STIM1 [2] = biological target: T1, ORAI1/STIM1 (Homo sapiens, UniProt Q13586+Q96D31); assay: Inhibition of human STIM1/Orai1 expressed in HEK293 cells assessed as reduction in Orai1 current by electrophysiological method; assay type: cell-based
T1 sequence (Q96D31 whole entry): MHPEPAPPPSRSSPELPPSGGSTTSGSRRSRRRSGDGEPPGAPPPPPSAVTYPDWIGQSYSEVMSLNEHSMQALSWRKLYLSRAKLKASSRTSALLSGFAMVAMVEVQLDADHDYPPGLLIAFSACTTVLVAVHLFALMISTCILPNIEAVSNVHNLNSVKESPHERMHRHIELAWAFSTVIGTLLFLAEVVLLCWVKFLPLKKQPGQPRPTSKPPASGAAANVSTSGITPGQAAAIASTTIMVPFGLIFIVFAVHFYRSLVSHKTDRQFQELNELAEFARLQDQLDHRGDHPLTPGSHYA
T1 sequence (Q13586 whole entry): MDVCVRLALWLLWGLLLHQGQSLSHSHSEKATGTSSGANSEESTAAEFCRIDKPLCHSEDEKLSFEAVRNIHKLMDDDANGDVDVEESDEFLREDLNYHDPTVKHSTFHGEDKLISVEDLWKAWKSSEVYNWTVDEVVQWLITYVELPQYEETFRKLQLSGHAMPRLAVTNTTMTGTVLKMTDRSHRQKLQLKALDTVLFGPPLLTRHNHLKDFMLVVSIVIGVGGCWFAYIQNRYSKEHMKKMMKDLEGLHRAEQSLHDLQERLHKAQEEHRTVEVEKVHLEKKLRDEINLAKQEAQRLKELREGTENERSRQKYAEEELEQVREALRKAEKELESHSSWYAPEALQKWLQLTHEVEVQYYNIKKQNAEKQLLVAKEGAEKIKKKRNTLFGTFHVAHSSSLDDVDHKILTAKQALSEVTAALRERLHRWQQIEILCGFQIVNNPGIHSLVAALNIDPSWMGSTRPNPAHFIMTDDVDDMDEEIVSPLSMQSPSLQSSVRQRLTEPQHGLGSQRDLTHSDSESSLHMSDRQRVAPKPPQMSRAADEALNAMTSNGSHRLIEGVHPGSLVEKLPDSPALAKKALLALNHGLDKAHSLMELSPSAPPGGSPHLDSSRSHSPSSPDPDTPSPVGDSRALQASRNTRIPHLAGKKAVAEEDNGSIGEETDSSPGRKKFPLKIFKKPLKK

[3] = biological target: Stromal interaction molecule 1/Protein orai-3 (Homo sapiens, UniProt Q13586+Q9BRQ5); assay: Inhibition of human STIM1/Orai3 expressed in HEK293 cells assessed as reduction in Orai3 current by electrophysiological method; assay type: cell-based
[4] = AUClast in Lewis rat at 10 mg/kg, po measured upto 24 hrs by LC-MS/MS analysis; assay type: ADME, organism-based; set-up: route oral, dose 10 mg/kg, time <=24; conditions: in vivo
[5] = Cmax in Lewis rat at 1 mg/kg, iv measured upto 24 hrs by LC-MS/MS analysis; assay type: ADME, organism-based; set-up: route intravenous, dose 1 mg/kg, time <=24; conditions: in vivo
[6] = Inhibition of SOCE in human Jurkat E6.1 cells preincubated for 10 to 30 mins in presence of thapsigargin followed by calcium chloride addition and measured after 10 mins by FLIPR-tetra analysis; assay type: cell-based
[7] = Half life in Lewis rat at 10 mg/kg, po measured upto 24 hrs by LC-MS/MS analysis; assay type: ADME, organism-based; conditions: in vivo
[8] = Cmax in Lewis rat at 10 mg/kg, po measured upto 24 hrs by LC-MS/MS analysis; assay type: ADME, organism-based; set-up: route oral, dose 10 mg/kg, time <=24; conditions: in vivo
[9] = Tmax in Lewis rat at 10 mg/kg, po measured upto 24 hrs by LC-MS/MS analysis; assay type: ADME, organism-based; conditions: in vivo
[10] = AUClast in Lewis rat at 1 mg/kg, iv measured upto 24 hrs by LC-MS/MS analysis; assay type: ADME, organism-based; set-up: route intravenous, dose 1 mg/kg, time <=24; conditions: in vivo
[11] = Half life in Lewis rat at 1 mg/kg, iv measured upto 24 hrs by LC-MS/MS analysis; assay type: ADME, organism-based; conditions: in vivo
[12] = Clearance in Lewis rat at 1 mg/kg, iv measured upto 24 hrs by LC-MS/MS analysis; assay type: ADME, organism-based; conditions: in vivo
[13] = Tmax in Lewis rat at 1 mg/kg, iv measured upto 24 hrs by LC-MS/MS analysis; assay type: ADME, organism-based; conditions: in vivo
[14] = Oral bioavailability in Lewis rat at 10 mg/kg measured upto 24 hrs by LC-MS/MS analysis; assay type: ADME, organism-based; conditions: in vivo
[15] = Volume of distribution at steady state in Lewis rat at 1 mg/kg, iv measured upto 24 hrs by LC-MS/MS analysis; assay type: ADME, organism-based; conditions: in vivo, read-out: Vdss
ORAI1/STIM1 [16] = biological target: T1, ORAI1/STIM1; assay: Inhibition of Orai1/STIM1 (unknown origin) expressed in HEK293 cells assessed as reduction in Ca2+-release activated Ca2+ entry current by manual patch clamp based electrophysiological method; assay type: cell-based
[17] = AUClast in collagen-induced rheumatoid arthritis DBA/1J mouse model at 0.75 mg/kg, po administered once daily for 15 days in presence of 3 mg/kg compound 36; assay type: ADME, organism-based; set-up: route oral, dose 0.75 mg/kg, time 15 day; conditions: in vivo
[18] = Tmax in collagen-induced rheumatoid arthritis DBA/1J mouse model at 0.75 mg/kg, po administered once daily for 15 days in presence of 3 mg/kg compound 36; assay type: ADME, organism-based; conditions: in vivo, time 15 day
[19] = Tmax in collagen-induced rheumatoid arthritis DBA/1J mouse model at 0.75 mg/kg, po administered once daily for 15 days; assay type: ADME, organism-based; conditions: in vivo, time 15 day
[20] = AUClast in collagen-induced rheumatoid arthritis DBA/1J mouse model at 0.75 mg/kg, po administered once daily for 15 days; assay type: ADME, organism-based; set-up: route oral, time 15 day, dose 0.75 mg/kg; conditions: in vivo
in vivo [21] = conditions: DBA/1J, mouse, po, 0.75 mg/kg
Description: Cmax in collagen-induced rheumatoid arthritis DBA/1J mouse model at 0.75 mg/kg, po administered once daily for 15 days

in vivo [22] = conditions: DBA/1J, mouse, po, 0.75 mg/kg; remark: listed apart in the source
ORAI1/STIM1 [23] = biological target: T1, ORAI1/STIM1; assay: Inhibition of Orai1/STIM1 (unknown origin); assay type: protein-complex assay
[24] = biological target: Protein orai-2/Stromal interaction molecule 1 (Homo sapiens, UniProt Q13586+Q96SN7); assay: Inhibition of Orai2/STIM1 (unknown origin); assay type: protein-complex assay
Sequence of Protein orai-2/Stromal interaction molecule 1 (Q96SN7 whole entry): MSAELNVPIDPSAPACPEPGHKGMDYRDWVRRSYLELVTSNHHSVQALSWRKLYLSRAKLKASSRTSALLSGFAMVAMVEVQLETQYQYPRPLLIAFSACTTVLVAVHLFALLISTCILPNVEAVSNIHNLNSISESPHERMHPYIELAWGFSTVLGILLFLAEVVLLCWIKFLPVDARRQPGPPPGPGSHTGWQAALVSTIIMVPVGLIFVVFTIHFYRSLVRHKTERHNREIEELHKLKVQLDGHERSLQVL
Sequence of Protein orai-2/Stromal interaction molecule 1 (Q13586 whole entry): as the sequence (Q13586 whole entry) above

Structure (SMILES): O=C(Nc1ccc(-n2nc(C(F)(F)F)cc2C(F)(F)F)cc1)c1ccncc1F
pIC50 [1]: 6.31

Structure (SMILES): Cc1ccc(C2=NOC(C)(C)C2=O)cc1-c1cnc(NC(=O)c2c(F)cccc2F)cn1
AUC(0-t) at 24 h [4]: 13 µM·h

Structure (SMILES): O=C(Nc1ccc(-c2cc(C(F)(F)F)ccc2Cl)cc1)c1c(F)cccc1F
AUC(0-t) at 24 h [4]: 0.93 µM·h

Structure (SMILES): Cc1ccc(-c2nn(C)c(=O)o2)cc1-c1ccc(NC(=O)c2c(F)cccc2F)cc1
Cmax [5]: 4.4 µM | pIC50 [6]: 6.85 | half-life [7]: 912 min | Cmax [8]: 4.1 µM | Tmax [9]: 4.8 h | AUC(0-t) at 24 h [10]: 27 µM·h | half-life [11]: 420 min | clearance [12]: 1.4 mL/min/kg | Tmax [13]: 4.8 min | bioavailability [14]: 28% | Vd [15]: 0.7 L/kg | AUC(0-t) at 24 h [4]: 75 µM·h

Now from value to compound:

pIC50 (ORAI1/STIM1 [2]): 5.40 | pIC50 [3]: 5.40
Structure (SMILES): O=C(Nc1ccn(Cc2ccc(O)cc2C(F)(F)F)n1)c1c(F)cccc1F

pIC50 (ORAI1/STIM1 [16]): 6.00
Structure (SMILES): O=C(Nc1ccn(Cc2c(F)cccc2C(F)(F)F)n1)c1c(F)cccc1F

AUC(0-t) at 360 h [17]: 0.6 µM·h | Tmax [18]: 1 h | Tmax [19]: 1 h | AUC(0-t) at 360 h [20]: 0.4 µM·h | Cmax at 360 h (in vivo [21]): 100 nM | Cmax at 360 h (in vivo [22]): 200 nM
Structure (SMILES): CN(Cc1cnc2nc(N)nc(N)c2n1)c1ccc(C(=O)N[C@@H](CCC(=O)O)C(=O)O)cc1 [METHOTREXATE]

pIC50 (ORAI1/STIM1 [23]): 6.92 | pIC50 [24]: 6.05
Structure (SMILES): Cc1cccc(F)c1C(=O)Nc1cnc(-c2cc3c(cc2Cl)OC(F)(F)O3)cn1 [ZEGOCRACTIN]
